Experimental data published in patent US20040156869A1, “2-substituted quinazolin-4-ylamine analogues” (Neurogen Corporation, priority 2002, published 2004).

Target: human capsaicin receptor (VR1) (Homo sapiens, UniProt Q8NER1)
Assay: Capsaicin receptor binding assay ([3H]RTX competition, VR1-transfected HEK293 membranes)
Settings: not given

Chain of human capsaicin receptor (VR1) (Q8NER1 whole entry): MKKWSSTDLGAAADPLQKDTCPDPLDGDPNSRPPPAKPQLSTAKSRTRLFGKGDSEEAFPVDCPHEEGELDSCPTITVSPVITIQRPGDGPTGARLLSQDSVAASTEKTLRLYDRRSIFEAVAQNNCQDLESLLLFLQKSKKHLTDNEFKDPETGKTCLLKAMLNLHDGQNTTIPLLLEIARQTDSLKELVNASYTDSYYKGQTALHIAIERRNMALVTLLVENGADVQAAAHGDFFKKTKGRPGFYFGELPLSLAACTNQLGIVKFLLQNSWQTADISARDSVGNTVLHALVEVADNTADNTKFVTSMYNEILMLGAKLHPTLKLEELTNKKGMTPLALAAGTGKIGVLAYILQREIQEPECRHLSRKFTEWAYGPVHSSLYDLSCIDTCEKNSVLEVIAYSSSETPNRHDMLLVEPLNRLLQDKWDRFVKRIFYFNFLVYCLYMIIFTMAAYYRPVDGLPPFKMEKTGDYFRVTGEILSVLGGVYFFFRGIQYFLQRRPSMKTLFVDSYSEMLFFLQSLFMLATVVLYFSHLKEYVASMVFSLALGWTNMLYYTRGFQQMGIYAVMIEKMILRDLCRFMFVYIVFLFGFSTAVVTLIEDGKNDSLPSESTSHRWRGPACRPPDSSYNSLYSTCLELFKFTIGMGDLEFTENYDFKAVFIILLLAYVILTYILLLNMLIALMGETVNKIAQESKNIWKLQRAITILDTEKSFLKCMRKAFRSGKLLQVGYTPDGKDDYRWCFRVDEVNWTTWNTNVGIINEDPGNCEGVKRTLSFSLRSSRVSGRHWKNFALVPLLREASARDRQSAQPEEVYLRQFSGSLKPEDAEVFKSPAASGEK

Ki, < 1 µM:
C[C@@H]1CN(Cc2nc(Nc3ccc(S(=O)(=O)N4CCOCC4)cc3)c3ncc(-c4ncccc4Cl)cc3n2)C[C@H](C)O1 [Compound 720, [7-(3-Chloro-pyridin-2-yl)-2-(2,6-dimethyl-morpholin-4-ylmethyl)-pyrido[3,2-d]pyrimidin-4-yl]-[4-(morpholine-4-sulfonyl)-phenyl]-amine (cis)]
FC(F)(F)c1ccc(Nc2nc(CCCOCc3ccccc3)nc3cc(-c4ncccc4C(F)(F)F)ccc23)cc1 [Compound 12, [2-(3-Benzyloxy-propyl)-7-(3-trifluoromethyl-pyridin-2-yl)-quinazolin-4-yl]-(4-trifluoromethyl-phenyl)-amine]
O=C(OCc1ccccc1)N1CCC[C@H]1c1nc(Nc2ccc(C(F)(F)F)cc2)c2ccc(-c3ncccc3C(F)(F)F)cc2n1 [Compound 656, (S)-2-[4-(4-Trifluoromethyl-phenylamino)-7-(3-trifluoromethyl-pyridin-2-yl)-quinazolin-2-yl]-pyrrolidine-1-carboxylic acid benzyl ester]
CC1(C)CN(Cc2nc(Nc3ccc(C4CC4)cc3)c3ccc(-c4ncccc4C(F)(F)F)cc3n2)CCO1 [Compound 741, (4-Cyclopropyl-phenyl)-[2-(2,2-dimethyl-morpholin-4-ylmethyl)-7-(3-trifluoromethyl-pyridin-2-yl)-quinazolin-4-yl]-amine]
COCc1nc(Nc2ccc(C(C)(C)C)nc2)c2ccc(-c3ncccc3C(F)(F)F)nc2n1 [Compound 191, (6-tert-Butyl-pyridin-3-yl)-[2-methoxymethyl-7-(3-trifluoromethyl-pyridin-2-yl)-pyrido[2,3-d]pyrimidin-4-yl]-amine]
OCCN1CCN(Cc2nc(Nc3ccc(C(F)(F)F)cc3)c3ccc(-c4ncccc4C(F)(F)F)cc3n2)CC1 [Compound 504, 2-{4-[4-(4-Trifluoromethyl-phenylamino)-7-(3-trifluoromethyl-pyridin-2-yl)-quinazolin-2-ylmethyl]-piperazin-1-yl}-ethanol]
COCc1nc(Nc2ccc(C#N)cc2)c2ncc(-c3ncccc3C(F)(F)F)cc2n1 [Compound 55, 4-[2-Methoxymethyl-7-(3-trifluoromethyl-pyridin-2-yl)-pyrido[3,2-d]pyrimidin-4-ylamino]-benzonitrile]
CN1CCCC1CCNC(=O)c1nc(Nc2ccc(C(F)(F)F)cc2)c2ccc(-c3ncccc3C(F)(F)F)nc2n1 (stereo not shown) [Compound 440, 4-(4-Trifluoromethyl-phenylamino)-7-(3-trifluoromethyl-pyridin-2-yl)-pyrido[2,3-d]pyrimidine-2-carboxylic acid [2-(1-methyl-pyrrolidin-2-yl)-ethyl]-amide]
FC(F)(F)c1ccc(Nc2nc(Cn3ccnc3)nc3cc(-c4ncccc4Cl)cnc23)cc1 [Compound 700, [7-(3-Chloro-pyridin-2-yl)-2-imidazol-1-ylmethyl-pyrido[3,2-d]pyrimidin-4-yl]-(4-trifluoromethyl-phenyl)-amine]
FC(F)(F)c1ccc(Nc2nc(CCN3CCSCC3)nc3cc(-c4ncccc4C(F)(F)F)ccc23)cc1 [Compound 403, [2-Thiomorpholin-4-ylethyl-7-(3-trifluoromethyl-pyridin-2-yl)-quinazolin-4-yl]-(4-trifluoromethyl-phenyl)-amine]
CC(C)(C)NS(=O)(=O)c1ccc(Nc2nc(COCc3ccccc3)nc3cc(-c4ncccc4C(F)(F)F)ccc23)cc1 [Compound 38, 4-[2-Benzyloxymethyl-7-(3-trifluoromethyl-pyridin-2-yl)-quinazolin-4-ylamino]-N-tert-butyl-benzenesulfonamide]
COCC(C)(C)c1ccc(Nc2nc(COCc3ccccc3)nc3cc(-c4ncccc4C(F)(F)F)ccc23)cc1 [Compound 42, [2-Benzyloxymethyl-7-(3-trifluoromethyl-pyridin-2-yl)-quinazolin-4-yl]-[4-(2-methoxy-1,1-dimethyl-ethyl)-phenyl]-amine]
C[C@H]1CN(Cc2nc(Nc3ccc(C(C)(C)C)nc3)c3ccc(-c4ncccc4Cl)cc3n2)C[C@H](C)O1 [Compound 605, (S,S)-(6-tert-Butyl-pyridin-3-yl)-[7-(3-chloro-pyridin-2-yl)-2-(2,6-dimethyl-morpholin-4-ylmethyl)-quinazolin-4-yl]-amine]
CC(C)(C)c1ccc(Nc2nc(CN3C[C@@H](O)C[C@@H]3C(=O)O)nc3cc(-c4ncccc4C(F)(F)F)ccc23)cc1 (stereo in doubt) [Compound 753, (R,S)-1-[4-(4-tert-Butyl-phenylamino)-7-(3-trifluoromethyl-pyridin-2-yl)-quinazolin-2-ylmethyl]-4-hydroxy-pyrrolidine-2-carboxylic acid]
CCOCc1nc(Nc2ccc(C(F)(F)F)cc2)c2ccc(-c3ncccc3Cl)cc2n1 [Compound 81, [7-(3-Chloro-pyridin-2-yl)-2-ethoxymethyl-quinazolin-4-yl]-(4-trifluoromethyl-phenyl)-amine]
CCC(C)c1ccc(Nc2nc(COC)nc3nc(-c4ncccc4Cl)ccc23)cc1 (stereo not shown) [Compound 63, (4-sec-Butyl-phenyl)-[7-(3-chloro-pyridin-2-yl)-2-methoxymethyl-pyrido[2,3-d]pyrimidin-4-yl]-amine]
C[C@H]1CN(Cc2nc(Nc3ccc(C(F)(F)F)cc3)c3ncc(-c4ncccc4C(F)(F)F)cc3n2)C[C@H](C)O1 [Compound 658, (S,S)-[2-(2,6-Dimethyl-morpholin-4-ylmethyl)-7-(3-trifluoromethyl-pyridin-2-yl)-pyrido[3,2-d]pyrimidin-4-yl]-(4-trifluoromethyl-phenyl)-amine]
C=C(C)CN(CC)Cc1nc(Nc2ccc(C(F)(F)F)nc2)c2ccc(-c3ncccc3C(F)(F)F)cc2n1 [Compound 380, [2-{[Ethyl-(2-methyl-allyl)-amino]-methyl}-7-(3-trifluoromethyl-pyridin-2-yl)-quinazolin-4-yl]-(6-trifluoromethyl-pyridin-3-yl)-amine]
COCc1nc(Nc2ccc(C(F)(F)F)cc2)c2ccc(-c3ncccc3Cl)cc2n1 [Compound 70, [7-(3-Chloro-pyridin-2-yl)-2-methoxymethyl-quinazolin-4-yl]-(4-trifluoromethyl-phenyl)-amine]
C[C@@H]1CN(Cc2nc(Nc3ccc(C(F)(F)F)nc3)c3ncc(-c4ncccc4Cl)cc3n2)C[C@H](C)O1 [Compound 616, [7-(3-Chloro-pyridin-2-yl)-2-(2,6-dimethyl-morpholin-4-ylmethyl)-pyrido[3,2-d]pyrimidin-4-yl]-(6-trifluoromethyl-pyridin-3-yl)-amine (cis)]
FC(F)(F)c1ccc(Nc2nc(C3CCN(Cc4ccncc4)CC3)nc3cc(-c4ncccc4C(F)(F)F)ccc23)cc1 [Compound 691, [2-(1-Pyridin-4-ylmethyl-piperidin-4-yl)-7-(3-trifluoromethyl-pyridin-2-yl)-quinazolin-4-yl]-(4-trifluoromethyl-phenyl)-amine]
CS(=O)(=O)N1CCC(c2nc(Nc3ccc(C(F)(F)F)cc3)c3ccc(-c4ncccc4C(F)(F)F)cc3n2)CC1 [Compound 703, [2-(1-Methanesulfonyl-piperidin-4-yl)-7-(3-trifluoromethyl-pyridin-2-yl)-quinazolin-4-yl]-(4-trifluoromethyl-phenyl)-amine]
C=CCN(CC=C)Cc1nc(Nc2ccc(C(F)(F)F)nc2)c2ccc(-c3ncccc3C(F)(F)F)cc2n1 [Compound 372, [2-Diallylaminomethyl-7-(3-trifluoromethyl-pyridin-2-yl)-quinazolin-4-yl]-(6-trifluoromethyl-pyridin-3-yl)-amine]
C[C@@H]1CN(Cc2nc(Nc3ccc(F)cc3)c3ccc(-c4ncccc4Cl)cc3n2)C[C@@H](C)O1 [Compound 622, (R,R)-(4-Fluoro-phenyl)-[7-(3-chloro-pyridin-2-yl)-2-(2,6-dimethyl-morpholin-4-ylmethyl)-quinazolin-4-yl]-amine]
CCOc1ccc(Nc2nc(COCC(C)C)nc3nc(-c4ncccc4Cl)ccc23)cc1 [Compound 264, [7-(3-Chloro-pyridin-2-yl)-2-isobutoxymethyl-pyrido[2,3-d]pyrimidin-4-yl]-(4-ethoxy-phenyl)-amine]
CCOC(=O)C1CCCN(Cc2nc(Nc3ccc(C(F)(F)F)cc3)c3ccc(-c4ncccc4C(F)(F)F)cc3n2)C1 (stereo not shown) [Compound 501, 1-[4-(4-Trifluoromethyl-phenylamino)-7-(3-trifluoromethyl-pyridin-2-yl)-quinazolin-2-ylmethyl]-piperidine-3-carboxylic acid ethyl ester]
C[C@@H]1CN(Cc2nc(Nc3ccc(C(C)(C)C)nc3)c3ccc(-c4ncccc4Cl)cc3n2)C[C@@H](C)O1 [Compound 607, (R,R)-(6-tert-Butyl-pyridin-3-yl)-[7-(3-chloro-pyridin-2-yl)-2-(2,6-dimethyl-morpholin-4-ylmethyl)-quinazolin-4-yl]-amine]
CCCCCCCCNCc1nc(Nc2ccc(C(F)(F)F)cc2)c2ccc(-c3ncccc3C(F)(F)F)cc2n1 [Compound 540, [2-Octylaminomethyl-7-(3-trifluoromethyl-pyridin-2-yl)-quinazolin-4-yl]-(4-trifluoromethyl-phenyl)-amine]
CC(=O)c1ccccc1-c1ccc2c(Nc3ccc(C(F)(F)F)cc3)nc(CN3C[C@@H](C)O[C@@H](C)C3)nc2c1 [Compound 639, 1-{2-[2-(2,6-Dimethyl-morpholin-4-ylmethyl)-4-(4-trifluoromethyl-phenylamino)-quinazolin-7-yl]-phenyl}-ethanone (cis)]
COc1ccccc1-c1ccc2c(Nc3ccc(C(F)(F)F)cc3)nc(CN3C[C@@H](C)O[C@@H](C)C3)nc2c1 [Compound 638, [2-(2,6-Dimethyl-morpholin-4-ylmethyl)-7-(2-methoxy-phenyl)-quinazolin-4-yl]-(4-trifluoromethyl-phenyl)-amine (cis)]

Same assay, conditions: Table III; [3H]RTX competition binding, capsaicin receptor

Ki, < 1 µM:
CC1CC(C)CN(Cc2nc(Nc3ccc(C(F)(F)F)cc3)c3ccc(-c4ncccc4C(F)(F)F)cc3n2)C1 (stereo not shown) [Compound 347, [2-(3,5-Dimethyl-piperidin-1-ylmethyl)-7-(3-trifluoromethyl-pyridin-2-yl)-quinazolin-4-yl]-(4-trifluoromethyl-phenyl)-amine]
